Among the data in patent US8440830B2, “Tetrahydro-fused pyridines as histone deacetylase inhibitors” (4SC AG, priority 2007, dated 2013) are IC50 values, retold here.

Some results are limits rather than exact numbers.

For the test, the system named is A549 NSCLC cells. Nature of the test: Cellular cytotoxicity assay (Alamar Blue), A549. It counts as cell-based. The conditions noted are these: Homo sapiens, 72 h, upper end given as ≧100, read-out: IC50 (μM), cytotoxicity towards A549 NSCLC cells. The gist of the method:
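Cells were dosed 24 h after seeding with semi-log compound dilutions in quadruplicate, then incubated 72 h at 37 °C, 5% CO2. Viability read by Resazurin reduction (4 h, fluorescence 544/590 nm) relative to untreated 0.5% DMSO controls; IC50 by non-linear regression.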
A general note: Alamar Blue is a resazurin reagent that responds to reducing activity.

In general, IC50 refers to the concentration that gives 50% inhibition. As to `Nc1ccccc1NC(=O)c1nc2c(s1)CN(S(=O)(=O)c1cccc(OC(F)F)c1)CC2` [Example 165, N-(2-aminophenyl)-5-{[3-(difluoromethoxy)phenyl]sulfonyl}-4,5,6,7-tetrahydro[1,3]thiazolo[5,4-c]pyridine-2-carboxamide], the IC50 was no less than 0.2 µM.

For the molecule `Nc1ccccc1NC(=O)c1nc2c(s1)CN(S(=O)(=O)c1ccc(OC(F)F)cc1)CC2` [Example 166, N-(2-aminophenyl)-5-{[4-(difluoromethoxy)phenyl]sulfonyl}-4,5,6,7-tetrahydro[1,3]thiazolo[5,4-c]pyridine-2-carboxamide], the IC50 was no less than 0.2 µM.

As to `Nc1ccccc1NC(=O)c1nc2c(s1)CN(S(=O)(=O)c1cccc(OC(F)(F)F)c1)CC2` [Example 167, N-(2-aminophenyl)-5-{[3-(trifluoromethoxy)phenyl]sulfonyl}-4,5,6,7-tetrahydro[1,3]thiazolo[5,4-c]pyridine-2-carboxamide], the IC50 is no less than 0.2 µM.

Turning to `Nc1ccccc1NC(=O)c1nc2c(s1)CN(S(=O)(=O)c1ccc(OC(F)(F)F)cc1)CC2` [Example 168, N-(2-aminophenyl)-5-{[4-(trifluoromethoxy)phenyl]sulfonyl}-4,5,6,7-tetrahydro[1,3]thiazolo[5,4-c]pyridine-2-carboxamide], the IC50 was no less than 0.2 µM.

As to `COc1ccc(N)c(NC(=O)c2nc3c(s2)CN(S(=O)(=O)c2ccc(C)cc2)CC3)c1` [Example 169, N-(2-amino-5-methoxyphenyl)-5-[(4-methylphenyl)sulfonyl]-4,5,6,7-tetrahydro[1,3]thiazolo[5,4-c]pyridine-2-carboxamide], the IC50 is no less than 0.2 µM.

For `Cc1ccc(S(=O)(=O)N2CCc3nc(C(=O)Nc4cc(C(C)C)ccc4N)sc3C2)cc1` [Example 170, N-(2-amino-5-isopropylphenyl)-5-[(4-methylphenyl)sulfonyl]-4,5,6,7-tetrahydro[1,3]thiazolo[5,4-c]pyridine-2-carboxamide], the IC50 is no less than 0.2 µM.

On to `COc1ccc(S(=O)(=O)N2CCc3nc(C(=O)Nc4cc(OC)ccc4N)sc3C2)cc1` [Example 171, N-(2-amino-5-methoxyphenyl)-5-[(4-methoxyphenyl)sulfonyl]-4,5,6,7-tetrahydro[1,3]thiazolo[5,4-c]pyridine-2-carboxamide], for which the IC50 is no less than 0.2 µM.

As to `Nc1ccccc1NC(=O)c1nc2c(s1)CN(C(=O)COc1ccccc1)CC2` [Example 172, N-(2-aminophenyl)-5-(phenoxyacetyl)-4,5,6,7-tetrahydro[1,3]thiazolo[5,4-c]pyridine-2-carboxamide], the IC50 was no less than 0.2 µM.

Regarding `Nc1ccccc1NC(=O)c1nc2c(s1)CN(C(=O)COc1ccc3ccccc3c1)CC2` [Example 175, N-(2-aminophenyl)-5-[(2-naphthyloxy)acetyl]-4,5,6,7-tetrahydro[1,3]thiazolo[5,4-c]pyridine-2-carboxamide], the IC50 was no less than 0.2 µM.

In the case of `COCC(=O)N1CCc2nc(C(=O)Nc3ccccc3N)sc2C1` [Example 177, N-(2-aminophenyl)-5-(methoxyacetyl)-4,5,6,7-tetrahydro[1,3]thiazolo[5,4-c]pyridine-2-carboxamide], the IC50 is no less than 0.2 µM.

In the case of `COc1ccc(OCC(=O)N2CCc3nc(C(=O)Nc4cc(C(C)C)ccc4N)sc3C2)cc1` [Example 178, N-(2-amino-5-isopropylphenyl)-5-[(4-methoxyphenoxy)acetyl]-4,5,6,7-tetrahydro[1,3]thiazolo[5,4-c]pyridine-2-carboxamide], the IC50 was no less than 0.2 µM.

As for `COc1cccc(OCC(=O)N2CCc3nc(C(=O)Nc4ccccc4N)sc3C2)c1` [Example 179, N-(2-aminophenyl)-5-[(3-methoxyphenoxy)acetyl]-4,5,6,7-tetrahydro[1,3]-thiazolo[5,4-c]pyridine-2-carboxamide], the half-inhibitory concentration (IC50) is no less than 0.2 µM.

`Nc1ccccc1NC(=O)c1nc2c(s1)CN(C(=O)Oc1ccc(-c3ccccc3)cc1)CC2` [Example 181, Biphenyl-4-yl 2-[(2-aminophenyl)carbamoyl]-6,7-dihydro[1,3]thiazolo[5,4-c]pyridine-5(4H)-carboxylate]: the IC50 is no less than 0.2 µM.
